In series [1] the test system is benzimidazole resistant Ostertagia circumcincta and Haemonchus contortus. As to the kind of experiment: Faecal egg counts in infected lambs (McMaster egg counting technique). Format: in vivo. On the procedure:
(§1) A study was carried out to determine the efficacy of the piperonyl butoxide: fenbendazole combination and to compare it with piperonyl-butoxide and fenbendazole alone against benzimidazole resistant abomasal parasites.
(§2) Twenty-four parasite naive Suffolk cross lambs were allocated into four groups of six. Each lamb received an oral dose of 6,000 benzimidazole resistant Ostertagia circumcincta and 2,400 benzimidazole resistant Haemonchus contortus.
(§3) Twenty-eight days after infection animals were treated as follows:
(§4) Group 2 Piperonyl butoxide (63 mg/kg) by stomach tube.
(§5) Group 3 Fenbendazole (5 mg/kg) by stomach tube.
(§6) Group 4 Piperonyl butoxide (63 mg/kg) and fenbendazole
(§7) (5 mg/kg) by stomach tube.
(§8) All lambs were faecal sampled and killed seven days after treatment (day 35). Nematode egg numbers were determined in faeces by the McMaster egg counting technique (Gordon and Whitlock (1939) J. Council for Scientific and Industrial Res., 12,50) and numbers of O. circumcincta were determined by the dilution method of Ritchie et al. (1966), Amer J. Vet. Res., 27, 659-667. Total abomasal counts of H. contortus were determined.

The subject of series [2] is benzimidazole resistant Haemonchus contortus. As to the kind of experiment: Total abomasal counts of H. contortus in sheep at necropsy. The note with it: for numbers of H.contortus at necropsy, effect in words: 7 days after treatment; for Mean ±SD numbers of H. contortus in sheep killed 7 days after treatment: piperonyl butoxide 63 mg/kg and/or fenbendazole 5 mg/kg by stomach tube, no treatment 345 ± 69. In kind it is in vivo. On the procedure: as §1, §2, §3, §4, §5, §6, §7, §8

Series [3] deals with benzimidazole resistant Ostertagia circumcincta. As to the kind of experiment: Numbers of O. circumcincta in sheep at necropsy (dilution method). In kind it is in vivo. The method, then: as §1, §2, §3, §4, §5, §6, §7, §8
The next series in a line: in vivo. The note with it: for AUC: goat, po, 7.5 mg/kg. The method, then:
In order to minimise interindividual variations our experimental protocol was designed as a crossover (each animal was used as its own control). A five week wash-out period was allowed between crossovers. Six goats were used in this experiment.
First period: Fenbendazole (Panacur 2.5%) was administered orally at a dose rate of 7.5 mg/kg. Blood samples were taken prior to drug administration and 0.25, 0.5, 1, 2, 4, 8, 12, 24, 32, 48, 72 and 96 hours thereafter.
Second period: One hour before administration of fenbendazole (7.5 mg/kg) the animals received a dose of piperonyl butoxide (0.5 g/kg) given intramuscularly. Blood samples were taken as in the first period.
Plasma samples were analysed for fenbendazole by High Performance Liquid Chromatography.

Series [4] relates to hepatocytes cultured from rats. From the text: An experiment using hepatocytes cultured from rats has been initiated to determine the metabolic interactions of piperonyl butoxide and fenbendazole (50 micromoles).
The conditions of series [5]: pretreatment with 2-diethylaminoethyl-2,2-diphenylvalerate hydrochloride and piperonyl butoxide; Food Chem. Toxicol. 1992, 30(12), 1021-30; cited from earlier work.

The structures appear in SMILES notation.

In general, AUC refers to concentration integrated over time.

With `COC(=O)Nc1nc2ccc(Sc3ccccc3)cc2[nH]1` [Fenbendazole, fenbendazole], the “Mean ±SD faecal egg counts in sheep seven days after treatment” value in series [1] (piperonyl butoxide 63 mg/kg and/or fenbendazole 5 mg/kg by stomach tube, no treatment 491 ± 267) is listed as 100 ± 84 Eggs per gram of faeces. For the same compound, the “reduction in faecal egg counts” value in series [1] (seven days after treatment) is on record as 79.7%. Further, in series [2], the “numbers of H.contortus at necropsy, effect in words” value was “significantly reduced” and the “Mean ±SD numbers of H. contortus in sheep killed 7 days after treatment” value worked out at 58 ± 29. The “reduction of number of O.circumcincta in the abomasa, in words” value in series [3] (at necropsy, alone) is given as “Neither piperonyl butoxide nor fenbendazole alone significantly reduced”. Moreover, the “Mean ±SD numbers of O. circumcincta in sheep killed 7 days after treatment” value in series [3] (piperonyl butoxide 63 mg/kg and/or fenbendazole 5 mg/kg by stomach tube, no treatment 2985 ± 654) came out at 2875 ± 1308. Also, in “in vivo”, the “area under the plasma concentration-time curve (AUC), change in words” value was “significant increase” and the “residence time, change in words” value was “significantly prolonged”. The AUC in “in vivo” (Area under plasma-concentration-time curve (Active alone)) stood at 4170 ng·h/mL. Besides, the AUC in “in vivo” (Area under plasma-concentration-time curve (Active plus piperonyl butoxide)) stood at 16600 ng·h/mL.
With `COC(=O)Nc1nc2ccc([S+]([O-])c3ccccc3)cc2[nH]1` (stereo not shown) [Fenbendazole sulfoxide, fenbendazole sulfoxide], the “concentrations of the sulfoxide and sulfone metabolites” value in series [4] is listed as “much reduced”. Besides, the AUC in the series “in vivo” (Area under plasma-concentration-time curve (Active alone), active alone, goats, fenbendazole 7.5 mg/kg oral) was 7720 ng·h/mL.
As for `c1ccc2[nH]c(-c3cscn3)nc2c1` [thiabendazole], in series [5], the “acute toxic effects on the kidneys of mice” value is listed as “enhanced”.
As to `CCCCOCCOCCOCc1cc2c(cc1CCC)OCO2` [Piperonyl butoxide, piperonyl butoxide], in series [2], the “numbers of H.contortus at necropsy, effect in words” value was “no effect” and the “Mean ±SD numbers of H. contortus in sheep killed 7 days after treatment” value is 320 ± 133. In series [4], the “effect on oxidative metabolism of fenbendazole by rat liver cells” value is listed as “inhibiting the oxidative metabolism of fenbendazole”.

These data come from patent publication US5744494A, “Synergistic compositions containing benzimidazole anthelmintics and methylenedioxyphenyl compounds” (priority 1993, dated 1998).
